PubChem BioAssay AID330 (DTP/NCI, 2004)
Where “and” joins values, the source holds several entries; their conditions need not be identical. Identical values can stand only once. Inconclusive results and toxic doses are left out.

System: P388 leukemia ip, CD2F1 mice, survival T/C
Assay: NCI In Vivo Anticancer Drug Screen. Data for tumor model P388 Leukemia (intraperitoneal) in CD2F1 (CDF1) mice
Settings: endpoint: median survival time, higher = longer survival
Method in brief: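 Mice carrying the transplanted tumor received test compound or vehicle. Survival was recorded in each group, and the value is the treated-group measurement divided by that of the vehicle-treated control group.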

[1] = dose: 50.0 mg/kg/injection, schedule: Q01DX009 (ip), vehicle: saline with Tween-80
[2] = dose: 100.0 mg/kg/injection, schedule: Q01DX009 (ip), vehicle: saline with Tween-80
[3] = dose: 200.0 mg/kg/injection, schedule: Q01DX009 (ip), vehicle: saline with Tween-80
[4] = dose: 60.0 mg/kg/injection, schedule: Q01DX005 (ip), vehicle: Klucel (hydroxypropylcellulose) (HPC)
[5] = dose: 120.0 mg/kg/injection, schedule: Q01DX005 (ip), vehicle: Klucel (hydroxypropylcellulose) (HPC)
[6] = dose: 240.0 mg/kg/injection, schedule: Q01DX005 (ip), vehicle: Klucel (hydroxypropylcellulose) (HPC)
[7] = dose: 100.0 mg/kg/injection, schedule: Q01DX009 (ip), vehicle: Klucel (hydroxypropylcellulose) (HPC)
[8] = dose: 60.0 mg/kg/injection, schedule: Q01DX005 (ip), vehicle: saline
[9] = dose: 120.0 mg/kg/injection, schedule: Q01DX005 (ip), vehicle: saline
[10] = dose: 50.0 mg/kg/injection, schedule: Q01DX005 (ip), vehicle: saline with Tween-80
[11] = dose: 200.0 mg/kg/injection, schedule: Q01DX005 (ip), vehicle: saline with Tween-80

Compound: COc1ccc2[nH]c3c(C)c4cc[n+](C)c(C)c4cc3c2c1
- T/C (dose: 1.56 mg/kg/injection, schedule: Q04DX002 (ip), vehicle: water): 97 % of control
- T/C (dose: 3.12 mg/kg/injection, schedule: Q04DX002 (ip), vehicle: water): 104 % of control
- T/C (dose: 6.25 mg/kg/injection, schedule: Q04DX002 (ip), vehicle: water): 107 % of control
- T/C (dose: 10.0 mg/kg/injection, schedule: Q04DX002 (ip), vehicle: water): 200 % of control
- T/C (dose: 12.5 mg/kg/injection, schedule: Q04DX002 (ip), vehicle: water): 113 % of control
- T/C (dose: 20.0 mg/kg/injection, schedule: Q04DX002 (ip), vehicle: water): 115 % of control
- T/C (dose: 25.0 mg/kg/injection, schedule: Q04DX002 (ip), vehicle: water): 117 % of control
- T/C (dose: 40.0 mg/kg/injection, schedule: Q04DX002 (ip), vehicle: water): 112 % of control
- T/C (dose: 50.0 mg/kg/injection, schedule: Q04DX002 (ip), vehicle: water): 123 % of control

Compound: CCOC(=O)C1CCCCC1NC1CCCCC1C(=O)OCC (stereo unspecified)
- T/C (dose: 34.5 mg/kg/injection, schedule: Q01DX009 (ip), vehicle: saline with Tween-80): 105 % of control
- T/C [1]: 120 % of control
- T/C (dose: 50.0 mg/kg/injection, schedule: Q01DX009 (ip), vehicle: saline): 103 % of control
- T/C [2]: 117 % of control
- T/C (dose: 100.0 mg/kg/injection, schedule: Q01DX009 (ip), vehicle: saline): 112 % of control
- T/C (dose: 138.0 mg/kg/injection, schedule: Q01DX009 (ip), vehicle: saline with Tween-80): 107 % of control
- T/C [3]: 120 % of control
- T/C (dose: 200.0 mg/kg/injection, schedule: Q01DX009 (ip), vehicle: saline): 108 % of control

Compound: Cc1cc2c(cc1C)-c1c(oc3cc(C)c(C)cc13)-c1ccccc1C(=O)O2
- T/C [1]: 94 % of control
- T/C [2]: 97 % of control
- T/C [3]: 97 % of control

Compound: CCCCCCCCCCCCCCCCCc1cccc(OC)c1
- T/C (dose: 7.5 mg/kg/injection, schedule: Q01DX009 (ip), vehicle: saline with Tween-80): 95 % of control
- T/C (dose: 15.0 mg/kg/injection, schedule: Q01DX009 (ip), vehicle: saline with Tween-80): 97 % of control
- T/C (dose: 30.0 mg/kg/injection, schedule: Q01DX009 (ip), vehicle: saline with Tween-80): 110 % of control

Compound: OC(c1cc(-c2ccccc2)nc2c(Cl)cc(Cl)cc12)C1CCCCN1 (stereo unspecified)
- T/C (dose: 12.5 mg/kg/injection, schedule: Q01DX009 (ip), vehicle: saline with Tween-80): 107 % of control
- T/C (dose: 25.0 mg/kg/injection, schedule: Q01DX009 (ip), vehicle: saline with Tween-80): 98 % of control
- T/C [1]: 88 % of control and 95 % of control

Compound: COc1cc(CC#N)c(S(=O)O)cc1OC
- T/C [1]: 116 % of control
- T/C [2]: 109 % of control
- T/C [3]: 114 % of control

Compound: CCOC(=O)C1C(=O)N2C(=O)C(NC(C)=O)=C(O)C2C1c1ccc(Cl)cc1 (stereo unspecified)
- T/C (dose: 100.0 mg/kg/injection, schedule: Q04DX002 (ip), vehicle: saline with Tween-80): 100 % of control
- T/C (dose: 200.0 mg/kg/injection, schedule: Q04DX002 (ip), vehicle: saline with Tween-80): 105 % of control
- T/C (dose: 400.0 mg/kg/injection, schedule: Q04DX002 (ip), vehicle: saline with Tween-80): 98 % of control

Compound: COc1cc(C(Nc2ccccn2)c2cc3c(cc2O)OCO3)cc(OC)c1O (stereo unspecified)
- T/C [4]: 91 % of control
- T/C [5]: 91 % of control
- T/C [6]: 94 % of control

Compound: CC(/C=C/c1ccco1)=N\NC(=S)Nc1ccc(Br)cc1
- T/C (dose: 100.0 mg/kg/injection, schedule: Q04DX002 (ip), vehicle: Klucel (hydroxypropylcellulose) (HPC)): 97 % of control
- T/C (dose: 200.0 mg/kg/injection, schedule: Q04DX002 (ip), vehicle: Klucel (hydroxypropylcellulose) (HPC)): 97 % of control
- T/C (dose: 400.0 mg/kg/injection, schedule: Q04DX002 (ip), vehicle: Klucel (hydroxypropylcellulose) (HPC)): 92 % of control

Compound: C/C(=N\O)c1ccccc1N=Nc1ccc(N(CCCl)CCCl)cc1C
- T/C (dose: 50.0 mg/kg/injection, schedule: Q01DX001 (ip), vehicle: Klucel (hydroxypropylcellulose) (HPC)): 100 % of control
- T/C (dose: 100.0 mg/kg/injection, schedule: Q01DX001 (ip), vehicle: Klucel (hydroxypropylcellulose) (HPC)): 98 % of control
- T/C (dose: 200.0 mg/kg/injection, schedule: Q01DX001 (ip), vehicle: Klucel (hydroxypropylcellulose) (HPC)): 104 % of control

Compound: C[Si](C)(C)OSc1ccccc1[N+](=O)[O-]
- T/C (dose: 12.5 mg/kg/injection, schedule: Q01DX009 (ip), vehicle: Klucel (hydroxypropylcellulose) (HPC)): 121 % of control
- T/C [1]: 120 % of control
- T/C [7]: 122 % of control
- T/C [2]: 114 % of control
- T/C [3]: 115 % of control

Compound: COC(=O)C1(C(=O)OC)C2C=CC(Cl)C21 (stereo unspecified)
- T/C (dose: 50.0 mg/kg/injection, schedule: Q01DX009 (ip), vehicle: Klucel (hydroxypropylcellulose) (HPC)): 96 % of control
- T/C [7]: 104 % of control
- T/C (dose: 200.0 mg/kg/injection, schedule: Q01DX009 (ip), vehicle: Klucel (hydroxypropylcellulose) (HPC)): 93 % of control

Compound: C=CCNc1nnc(-c2ccccc2)s1
- T/C [1]: 103 % of control
- T/C [2]: 100 % of control
- T/C [3]: 100 % of control

Compound: Nc1nc(-c2ccncc2)cc(-c2cc(-c3ccncc3)nc(N)n2)n1
- T/C [8]: 102 % of control
- T/C [9]: 96 % of control

Compound: CCOC(=O)N1CCN(c2ccc(/C=C\c3cccc(/C=C\c4ccc(N5CCN(C(=O)OCC)CC5)cc4)[n+]3C)cc2)CC1
- T/C (dose: 3.12 mg/kg/injection, schedule: Q01DX009 (ip), vehicle: saline): 118 % of control
- T/C (dose: 6.25 mg/kg/injection, schedule: Q01DX009 (ip), vehicle: saline): 111 % of control

Compound: CCOc1c(N=Nc2ccc(C)cc2)c(C)nn1C(=S)S
- T/C [4]: 96 % of control
- T/C [5]: 105 % of control
- T/C [6]: 97 % of control

Compound: CC(C)c1cc2c(cc1O)C(O)C1(O)CCCC(C)(C)[C@H]1CC2 (stereo partly specified)
- T/C (dose: 7.5 mg/kg/injection, schedule: Q01DX005 (ip), vehicle: other): 104 % of control
- T/C (dose: 15.0 mg/kg/injection, schedule: Q01DX005 (ip), vehicle: other): 100 % of control
- T/C (dose: 30.0 mg/kg/injection, schedule: Q01DX005 (ip), vehicle: other): 86 % of control
- T/C (dose: 60.0 mg/kg/injection, schedule: Q01DX005 (ip), vehicle: other): 94 % of control

Compound: COc1ccc(CN2CC(C)(NC(=O)OCc3ccccc3)C2=O)c(OC)c1 (stereo unspecified)
- T/C [10]: 106 % of control
- T/C (dose: 100.0 mg/kg/injection, schedule: Q01DX005 (ip), vehicle: saline with Tween-80): 98 % of control
- T/C [11]: 103 % of control

Compound: Nc1ncnc2c1ncn2Cc1cccnc1
- T/C (dose: 50.0 mg/kg/injection, schedule: Q01DX005 (ip), vehicle: Klucel (hydroxypropylcellulose) (HPC)): 98 % of control
- T/C (dose: 100.0 mg/kg/injection, schedule: Q01DX005 (ip), vehicle: Klucel (hydroxypropylcellulose) (HPC)): 98 % of control
- T/C (dose: 200.0 mg/kg/injection, schedule: Q01DX005 (ip), vehicle: Klucel (hydroxypropylcellulose) (HPC)): 100 % of control

Compound: O=C1NC2(CCCCC2)C(=O)N1CCl
- T/C (dose: 6.25 mg/kg/injection, schedule: Q01DX005 (ip), vehicle: saline): 100 % of control
- T/C (dose: 12.5 mg/kg/injection, schedule: Q01DX005 (ip), vehicle: saline): 101 % of control
- T/C (dose: 25.0 mg/kg/injection, schedule: Q01DX005 (ip), vehicle: saline): 108 % of control
- T/C (dose: 30.0 mg/kg/injection, schedule: Q01DX005 (ip), vehicle: saline): 104 % of control
- T/C (dose: 50.0 mg/kg/injection, schedule: Q01DX005 (ip), vehicle: saline): 103 % of control
- T/C [8]: 122 % of control
- T/C (dose: 100.0 mg/kg/injection, schedule: Q01DX005 (ip), vehicle: saline): 112 % of control
- T/C [9]: 118 % of control
- T/C (dose: 240.0 mg/kg/injection, schedule: Q01DX005 (ip), vehicle: saline): 114 % of control

Compound: CCN(CC)CCSC1OC(=O)c2ccccc21 (stereo unspecified)
- T/C (dose: 1.25 mg/kg/injection, schedule: Q01DX009 (ip), vehicle: saline): 104 % of control
- T/C (dose: 2.5 mg/kg/injection, schedule: Q01DX009 (ip), vehicle: saline): 103 % of control
- T/C (dose: 5.0 mg/kg/injection, schedule: Q01DX009 (ip), vehicle: saline): 109 % of control
- T/C (dose: 10.0 mg/kg/injection, schedule: Q01DX009 (ip), vehicle: saline): 109 % of control

Compound: CCC(CC)(C(=O)Nc1ccc2nc(C)cc(N)c2c1)C(=O)Nc1ccc2nc(C)cc(N)c2c1
- T/C (dose: 12.5 mg/kg/injection, schedule: Q01DX005 (ip), vehicle: saline with Tween-80): 102 % of control
- T/C (dose: 25.0 mg/kg/injection, schedule: Q01DX005 (ip), vehicle: saline with Tween-80): 90 % of control
- T/C [10]: 87 % of control and 93 % of control
- T/C [11]: 93 % of control
